This is an account of results in patent US12065443B2, “Compounds and pharmaceutical compositions thereof for the treatment of diseases” (priority 2017, dated 2024).

Test [1] relates to LPS-induced TNFα secretion in monocyte-derived macrophages (MdM). The experiment in a line: MdM assay: LPS-triggered TNFα (ELISA). The format is cell-based, human. To be noted: Homo sapiens, Macrophage, LPS-triggered TNFα inhibition. The essentials:
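TNFα ELISA read on supernatants harvested 20 h after LPS (final 200 ng/mL) stimulation. Cells were day-10 macrophages derived from human blood CD14+ monocytes, exposed to 3-fold compound dilutions for 1 h at 37 °C beforehand, with DMSO held at 0.2%.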
In general terms: ELISA stands for enzyme-linked immunosorbent assay.

In the next test the target is T1, SIK2 (Homo sapiens, UniProt Q9H0K1).
T1 construct: purchased ThermoFisher Scientific PV4792
In words: biochemical. To be noted: 33P radioactive SIK kinase assay, AMARA peptide, 10 μM ATP. The essentials: (§1)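 Read-out: ^33P incorporated into AMARA peptide, counted on filter plates, taken as kinase activity. Reactions start on addition of labeled/unlabeled ATP to enzyme plus substrate and end with phosphoric acid. Controls: 1% DMSO (negative) and 10 μM staurosporine (positive), final.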

For a further test, the target named is T2, SIK1 (Homo sapiens, UniProt P57059).
T2 construct: purchased Carna Biosciences 02-131
The experiment in a line: biochemical. To be noted: 33P radioactive SIK kinase assay, AMARA peptide, 10 μM ATP; read-out: SIK1 IC50. The essentials: as §1

Another test has as its target T3, SIK3 (Homo sapiens, UniProt Q9Y2K2).
T3 construct: purchased SignalChem S12-11G-100
In words: biochemical. The essentials: as §1

Test [2] relates to LPS triggered IL-10 secretion in monocyte-derived macrophages (MdM). The experiment in a line: MdM assay: LPS-triggered IL-10 (ELISA). The format is cell-based, human. Particulars: maximal fold change vs LPS only, median across assays. The protocol: This assay evaluates illustrative compounds of the invention for their inhibition of LPS-induced TNFα and LPS triggered IL-10 secretion in monocyte-derived macrophages.
PBMCs are isolated from human blood samples (buffycoats). The buffy coat is aseptically transferred into a 50 mL Falcon tube, and diluted 1/2 in PBS. Falcon tubes are filled with 20 mL Lymphoprep™, on top of which 25 mL of the buffy coat is carefully added, tubes are centrifuged for 35 min at 400 g in temperature controlled centrifuge, without brake, at 25° C. PBMCs are aspirated from the white interface layer between sample and Lymphoprep™. PBMCs are washed five times in PBS.
PBMCs are centrifuged at 300×g for 10 min and resuspended at a density of 1.0E07 cells/80 μL Miltenyi buffer (PBS, pH 7.4, 1% FBS, 2 mM EDTA).
Starting from this point of the protocol all steps are performed on ice. 20 μL of CD14+ micro-beads are added per 1.0E07 cells, the tube is mixed and incubated for 15 min in the fridge at 4° C. Cell suspension volume is adjusted to total volume of 100 mL using Miltenyi buffer, mixed gently and subsequently centrifuged for 10 min at 300× g. Supernantant is discarded and cell pellet is resuspended in 12 mL of Miltenyi buffer.
Four LS columns are placed in the MACS Separator (magnet) from Miltenyi Biotec, and are prewet by rinsing with 3 mL of MACS buffer per column. Three mL of cell suspension is added onto the column (max 1*10^8 of labelled cells/column), and columns are subsequently washed 3 times with 3 mL of Miltenyi buffer.
The columns are removed from the magnets, and 5 mL of Miltenyi buffer are added to the column to flush out the CD14+ fraction by pushing the plunger into the column. The flushed fractions are collected in a fresh 50 mL Falcon and volume is adjusted to 30 mL using Miltenyi buffer, cells are centrifuged for 10 min at 300× g. The obtained cell pellet is resuspended in 10 mL RPMI w/o FBS, and cell density is determined using a hematologic analyser (Sysmex XS-500i).
On day 10, MdMs are triggered and compound is added.
A compound dilution plate is made in 100% DMSO by 3-fold dilution of 10 mM stock solution. An intermediate dilution plate (10× final concentration) is made by diluting the compound dilution plate 50-fold in RPMI medium.
Medium is carefully removed from cell plates using multichannel pipette, and replaced by 80 μL fresh medium. 10 μL of the 10× final concentration compound is added to the cells and incubated for 1 hour at 37° C. before addition of trigger. No trigger conditions/trigger conditions are spiked with equal final DMSO concentrations of 0.2% DMSO. 10 μL of 10×LPS (final conc. 200 ng/mL) solution are added to all wells except for the ‘no trigger wells’ where 10 μL medium is added. Supernatant is collected after 2 h (IL-10 determination) and after 20 h (TNFα determination) of LPS triggering.
Plates are washed three times with PBST, where after 100 μL of Strep-HRP conjugate (0.5 μg/mL final concentration diluted in dilution buffer) is added. Plates are incubated in the dark, at 37° C. for 30 min. Plates are washed three times with PBST. […] 100 μL of substrate solution is added to each well and incubated until brilliant blue color develops. The reaction is stopped by adding 50 μL of 1 M H2SO4, after which absorbance is measured at 450 nm on the SpectraMax i3, Molecular Devices.
To quantify these inductions fold changes (FC) compared to ‘LPS only’ are calculated for each concentration tested and the maximal FC is calculated (IL-10 FCmax):
[formula] wherein ABS=Absorbance measured at 450 nm.
The median maximal FC for test compounds across two or more assays is reported (IL-10FCmax median).

Bounds are passed on as bounds.

T2 sequence (P57059 whole entry): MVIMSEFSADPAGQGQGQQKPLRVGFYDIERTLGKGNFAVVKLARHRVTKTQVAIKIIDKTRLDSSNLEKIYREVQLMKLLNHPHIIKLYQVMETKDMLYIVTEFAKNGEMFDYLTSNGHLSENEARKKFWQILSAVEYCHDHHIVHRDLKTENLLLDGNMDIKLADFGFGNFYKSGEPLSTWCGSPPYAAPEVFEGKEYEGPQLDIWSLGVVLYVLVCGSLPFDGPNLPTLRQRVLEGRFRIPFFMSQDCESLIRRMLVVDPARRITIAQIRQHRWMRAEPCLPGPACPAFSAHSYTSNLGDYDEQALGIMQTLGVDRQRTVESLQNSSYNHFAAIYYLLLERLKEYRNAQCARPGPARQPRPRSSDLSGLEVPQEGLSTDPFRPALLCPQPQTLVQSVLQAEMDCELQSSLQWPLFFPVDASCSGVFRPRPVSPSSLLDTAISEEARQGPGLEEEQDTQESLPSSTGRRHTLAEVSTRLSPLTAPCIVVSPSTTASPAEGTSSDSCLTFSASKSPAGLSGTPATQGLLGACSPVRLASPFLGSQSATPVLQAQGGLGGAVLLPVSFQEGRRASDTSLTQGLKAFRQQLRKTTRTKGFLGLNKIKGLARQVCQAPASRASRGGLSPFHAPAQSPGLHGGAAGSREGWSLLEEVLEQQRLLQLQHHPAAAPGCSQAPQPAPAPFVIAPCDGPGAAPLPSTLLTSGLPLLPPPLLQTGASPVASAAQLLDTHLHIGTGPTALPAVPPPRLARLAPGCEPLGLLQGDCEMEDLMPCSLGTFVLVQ
T1 sequence (Q9H0K1 whole entry): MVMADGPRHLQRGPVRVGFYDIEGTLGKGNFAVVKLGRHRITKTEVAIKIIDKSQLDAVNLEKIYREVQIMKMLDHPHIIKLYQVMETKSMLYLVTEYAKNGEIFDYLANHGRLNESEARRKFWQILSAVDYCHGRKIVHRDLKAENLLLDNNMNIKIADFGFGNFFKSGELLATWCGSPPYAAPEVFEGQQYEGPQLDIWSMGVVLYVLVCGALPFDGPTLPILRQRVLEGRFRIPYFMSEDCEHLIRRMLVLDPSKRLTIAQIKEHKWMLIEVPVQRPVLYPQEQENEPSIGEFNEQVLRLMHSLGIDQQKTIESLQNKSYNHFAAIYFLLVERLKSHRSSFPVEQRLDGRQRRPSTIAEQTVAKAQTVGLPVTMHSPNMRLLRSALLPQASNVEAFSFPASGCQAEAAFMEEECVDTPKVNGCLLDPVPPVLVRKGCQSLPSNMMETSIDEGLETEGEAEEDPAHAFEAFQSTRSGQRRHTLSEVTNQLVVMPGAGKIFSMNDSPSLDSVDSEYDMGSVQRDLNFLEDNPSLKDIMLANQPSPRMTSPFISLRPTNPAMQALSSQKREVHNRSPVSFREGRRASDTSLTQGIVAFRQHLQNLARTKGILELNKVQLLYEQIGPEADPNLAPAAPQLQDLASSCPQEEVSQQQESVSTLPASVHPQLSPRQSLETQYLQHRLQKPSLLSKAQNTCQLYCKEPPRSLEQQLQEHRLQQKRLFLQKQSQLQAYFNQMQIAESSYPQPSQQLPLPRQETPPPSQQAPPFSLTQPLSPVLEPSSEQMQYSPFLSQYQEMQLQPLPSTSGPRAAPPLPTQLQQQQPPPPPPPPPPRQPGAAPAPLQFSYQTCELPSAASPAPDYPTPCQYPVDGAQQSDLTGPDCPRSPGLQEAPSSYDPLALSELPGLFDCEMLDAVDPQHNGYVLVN
T3 sequence (Q9Y2K2 whole entry): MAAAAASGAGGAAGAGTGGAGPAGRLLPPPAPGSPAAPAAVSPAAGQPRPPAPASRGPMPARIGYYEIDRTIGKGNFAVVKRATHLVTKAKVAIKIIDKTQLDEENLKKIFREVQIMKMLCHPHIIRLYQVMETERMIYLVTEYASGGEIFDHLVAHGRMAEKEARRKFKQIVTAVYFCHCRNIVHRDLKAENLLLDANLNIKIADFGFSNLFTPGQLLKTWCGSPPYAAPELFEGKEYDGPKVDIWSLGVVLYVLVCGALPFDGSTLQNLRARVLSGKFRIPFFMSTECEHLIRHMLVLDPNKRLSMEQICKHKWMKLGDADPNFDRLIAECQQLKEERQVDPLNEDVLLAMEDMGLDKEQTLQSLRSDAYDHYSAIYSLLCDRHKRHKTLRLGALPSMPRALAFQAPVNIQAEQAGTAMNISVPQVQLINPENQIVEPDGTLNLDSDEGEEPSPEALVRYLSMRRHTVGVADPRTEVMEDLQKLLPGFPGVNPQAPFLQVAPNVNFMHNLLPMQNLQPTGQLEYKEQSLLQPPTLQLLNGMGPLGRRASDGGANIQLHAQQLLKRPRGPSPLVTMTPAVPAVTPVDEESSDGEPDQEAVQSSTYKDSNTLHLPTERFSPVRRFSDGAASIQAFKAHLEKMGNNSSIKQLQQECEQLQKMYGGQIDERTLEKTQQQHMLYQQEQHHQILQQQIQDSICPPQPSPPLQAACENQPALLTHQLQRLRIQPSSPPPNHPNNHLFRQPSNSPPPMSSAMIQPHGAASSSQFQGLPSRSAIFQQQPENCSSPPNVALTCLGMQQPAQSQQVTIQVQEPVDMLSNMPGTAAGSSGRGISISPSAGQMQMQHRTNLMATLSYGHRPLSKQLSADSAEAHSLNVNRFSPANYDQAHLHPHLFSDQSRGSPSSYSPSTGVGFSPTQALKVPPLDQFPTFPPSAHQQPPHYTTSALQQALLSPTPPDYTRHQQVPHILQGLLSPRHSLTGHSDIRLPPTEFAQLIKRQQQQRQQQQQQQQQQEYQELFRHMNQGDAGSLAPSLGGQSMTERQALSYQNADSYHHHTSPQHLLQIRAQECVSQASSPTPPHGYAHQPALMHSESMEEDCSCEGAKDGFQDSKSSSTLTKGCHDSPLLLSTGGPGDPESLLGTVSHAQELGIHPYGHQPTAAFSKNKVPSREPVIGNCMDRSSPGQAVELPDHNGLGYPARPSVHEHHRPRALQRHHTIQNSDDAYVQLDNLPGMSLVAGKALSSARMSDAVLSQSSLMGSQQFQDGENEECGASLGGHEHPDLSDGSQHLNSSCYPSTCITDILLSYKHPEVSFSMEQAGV

By EC50 is commonly meant the concentration needed to bring the measured effect to its halfway point. For orientation: IC50 means the concentration at which inhibition is half-maximal. With `COc1cc(-n2cnc3cc(-c4cnn(C)c4)ccc32)cc(OC)c1C(=O)N1CC(O)(C(F)(F)F)C1` [compound 219, [2,6-dimethoxy-4-[5-(1-methylpyrazol-4-yl)benzimidazol-1-yl]phenyl]-[3-hydroxy-3-(trifluoromethyl)azetidin-1-yl]methanone], in test [1], the 50% effective concentration (EC50) was in the range of 100 to 1000 nM. The IC50 on SIK2, on SIK1 and at SIK3 was 0.01 to 10 nM each time. Further, the “IL-10 FCmax median” value in test [2] is recorded as “++ (>1.5-4.5)”.

As for `COc1cc(-c2cnc3cc(-c4cnn(CC(=O)O)c4)ccn23)cc(OC)c1C(=O)NCC(F)(F)F` [Cpd 228, 2-[4-[3-[3,5-dimethoxy-4-(2,2,2-trifluoroethyl-carbamoyl)phenyl]imidazo[1,2-a]pyridin-7-yl]pyrazol-1-yl]acetic acid], in test [1], the EC50 is more than 5000 nM. For the same compound, the half-maximal inhibitory concentration (IC50) on SIK2, at SIK1 and on SIK3 was 0.01 to 10 nM in each case. In addition, the “IL-10 FCmax median” value in test [2] is on record as “++ (>1.5-4.5)”.

With `CCn1cc(-c2ccc3c(c2)ncn3-c2cc(OC)c(C(=O)NCCF)c(OC)c2)cn1` [compound 10, 4-[5-(1-ethylpyrazol-4-yl)benzimidazol-1-yl]-N-(2-fluoroethyl)-2,6-dimethoxy-benzamide], in test [1], the EC50 lay in the range of 100 to 1000 nM. In addition, the IC50 lay in the range of 0.01 to 10 nM on SIK2, 10 to 100 nM at SIK1 and 0.01 to 10 nM at SIK3. The “IL-10 FCmax median” value in test [2] was “++ (>1.5-4.5)”.

`COC(=O)CCCn1cc(-c2ccn3c(-c4cc(OC)c(C(=O)NCC(F)(F)F)c(OC)c4)cnc3c2)cn1` [compound 256, methyl 4-[4-[3-[3,5-dimethoxy-4-(2,2,2-trifluoroethyl-carbamoyl)phenyl]imidazo[1,2-a]pyridin-7-yl]pyrazol-1-yl]butanoate] returned a concentration for a half-maximal effect (EC50) in test [1] of 0.1 to 100 nM. Besides, the half-maximal inhibitory concentration (IC50) on SIK2, at SIK1 and on SIK3 was 0.01 to 10 nM in each case. Moreover, the “IL-10 FCmax median” value in test [2] is “++ (>1.5-4.5)”.

Regarding `CCNC(=O)c1c(OC)cc(-n2cnc3cc(-c4cnn(CCN5CCOCC5)c4)ccc32)cc1OC` [compound 4, N-ethyl-2,6-dimethoxy-4-[5-[1-(2-morpholinoethyl)pyrazol-4-yl]benzimidazol-1-yl]benzamide], the EC50 in test [1] fell in the range of 1000 to 5000 nM. Further, the half-maximal inhibitory concentration (IC50) at SIK2, at SIK1 and against SIK3 was 10 to 100 nM each time. The “IL-10 FCmax median” value in test [2] is on record as “++ (>1.5-4.5)”.

For `COc1cc(-n2cnc3cc(-c4cnn(C)c4)ccc32)cc(OC)c1C(=O)NC1CC1` [Cpd 86, N-cyclopropyl-2,6-dimethoxy-4-[5-(1-methylpyrazol-4-yl)benzimidazol-1-yl]benzamide], in test [1], the half-maximal effective concentration (EC50) lay within 0.1 to 100 nM. The figures for the IC50 at SIK2, at SIK1 and against SIK3 were 0.01 to 10 nM, 10 to 100 nM and 0.01 to 10 nM, respectively. The “IL-10 FCmax median” value in test [2] was “++ (>1.5-4.5)”.

Take `COc1cc(-n2cnc3cc(-c4cnoc4)ccc32)cc(OC)c1C(=O)NCC(F)(F)F` [Cpd 51, 4-(5-isoxazol-4-ylbenzimidazol-1-yl)-2,6-dimethoxy-N-(2,2,2-trifluoroethyl)benzamide]: the EC50 in test [1] fell in the range of 100 to 1000 nM. Also, the 50% inhibitory concentration (IC50) on SIK2, on SIK1 and at SIK3 was 10 to 100 nM in each case. Also, the “IL-10 FCmax median” value in test [2] was “++ (>1.5-4.5)”.

On to `CCNC(=O)c1c(OC)cc(-c2cnc3cc(-c4cnn(C5CCN(C)CC5)c4)ccn23)cc1OC(F)F` [compound 148, 2-(difluoromethoxy)-N-ethyl-6-methoxy-4-[7-[1-(1-methyl-4-piperidyl)pvrazol-4-yl]imidazo[1,2-a]pyridin-3-yl]benzamide], for which the concentration giving a half-maximal response (EC50) in test [1] lay within 0.1 to 100 nM. Further, the half-maximal inhibitory concentration (IC50) on SIK2, on SIK1 and at SIK3 was 0.01 to 10 nM each time. The “IL-10 FCmax median” value in test [2] is “++ (>1.5-4.5)”.

As to `COc1cc(-n2cnc3cc(-c4cnn(C)c4)ccc32)cc(OC)c1C(=O)N[C@@H]1C[C@@H]1C(F)F` [compound 158], the EC50 in test [1] was in the range of 100 to 1000 nM. The IC50 on SIK2 lay in the range of 0.01 to 10 nM; at SIK1 it was 10 to 100 nM; on SIK3, 0.01 to 10 nM. Besides, the “IL-10 FCmax median” value in test [2] was “++ (>1.5-4.5)”.
